# Source: ChEMBL document CHEMBL3881521, “Alpha-9 integrin antagonists and anti-inflammatory compositions therof” (2003)
# The source made the active and inactive calls. The calls are words filed in the database; no cut-off is given here. *1 amine or outer side, *2 acyl side, *3 side chain or, on linkers, in order; H or OH if unused. Where a SMILES comes first, the peptide text is derived from it. Side-chain parts run from the residue outwards. [ ]: non-standard residue; d: D form. The star is where a group is joined. Tos = Cc1ccc(S(=O)(=O)*)cc1; NMeA = CN[C@@H](C)C(=O)O; CO = O=C([*:1])[*:2]; Sar = CNCC(=O)O
# Legend:
# Format in all cases: cell-based
# SW480 [1] = assay: Selectivity for integrin alpha9beta1 (unknown origin) expressed in SW480 cells over integrin alpha4beta7 (unknown origin); details: Homo sapiens
# [2] = biological target: ITGB1-ITGA9 complex (Homo sapiens) (UniProt P05556+Q13797); assay: Antagonist activity against integrin alpha9beta1 (unknown origin) expressed in SW480 cells assessed as inhibition of integrin alpha9-dependent cell adhesion to tenascin by binding saturation assay
# SW480 [3] = assay: Selectivity for integrin alpha9beta1 (unknown origin) expressed in SW480 cells over integrin alpha5beta1 (unknown origin); details: Homo sapiens
# [4] = biological target: Integrin alpha-4/beta-1 (Homo sapiens) (UniProt P05556+P13612); assay: Inhibition of C-terminal human lgG1 heavy chain constant region tagged recombinant soluble VCAM-1 binding to integrin alpha4beta1 in human Jurkat cells incubated for 30 mins by FACS based 15/7 antibody assay
SMILES,Selectivity ratio (SW480 [1]),inhibition [2],Selectivity ratio (SW480 [3]),inhibition [4]
Cc1ccc(S(=O)(=O)N(C)[C@@H](C)C(=O)N[C@@H](Cc2ccc(OC(=O)N(C)C)cc2)C(=O)O)cc1 (Tos-[NMeA]-Tyr([CO-NMe2])-OH),100,Active,100,Active
Cc1ccc(S(=O)(=O)N(C)CC(=O)N[C@@H](Cc2ccc(OC(=O)N(C)C)cc2)C(=O)O)cc1 (Tos-[Sar]-Tyr([CO-NMe2])-OH),100,Active,100,Active
Cc1ccc(S(=O)(=O)N2CCC[C@H]2C(=O)N[C@@H](Cc2ccc(OC(=O)N3CCN(C)CC3)cc2)C(=O)O)cc1,100,Active,100,Active
Cc1ccc(S(=O)(=O)N2CS(=O)(=O)C(C)(C)[C@@H]2C(=O)N[C@@H](Cc2ccc(OC(=O)N(C)C)cc2)C(=O)O)cc1,100,Active,100,Active
Cc1ccc(S(=O)(=O)N2CCC[C@H]2C(=O)N[C@@H](Cc2ccc(OC(=O)N(C)C)cc2)C(=O)O)cc1 (Tos-Pro-Tyr([CO-NMe2])-OH),100,Active,100,Active
Cc1ccc(S(=O)(=O)N2CS(=O)(=O)C(C)(C)[C@@H]2C(=O)N[C@@H](Cc2ccc(OCCCN(C)C)cc2)C(=O)O)cc1,100,Active,100,Active
Cc1ccc(S(=O)(=O)N2CCC[C@H]2C(=O)N[C@@H](Cc2ccc(OC(=O)N3CCNCC3)cc2)C(=O)O)cc1,100,Active,100,Active
Cc1ccc(S(=O)(=O)N2CCS(=O)(=O)C[C@@H]2C(=O)N[C@@H](Cc2ccc(OC(=O)N(C)C)cc2)C(=O)O)cc1,100,Active,100,Active
CN(C)C(=O)Oc1ccc(C[C@H](NC(=O)[C@@H]2CCCN2S(=O)(=O)c2cnn(C)c2)C(=O)O)cc1,100,Active,100,Active
